Measurements published in patent publication US8450374B2, “Pan-antagonists for the androgen receptor and androgen receptor mutants associated with anti-androgen withdrawal” (priority 2009, dated 2013).
Positions count from the first letter of the chain named.

Tests used:
AR T877A [1] = target: T1, AR T877A (Homo sapiens, UniProt P10275, T878A); test: Transcription assay (ARE-luciferase reporter) in CV-1 cells, AR T877A; assay type: cell-based; design: expressed in transfected cells; host or cells: CV-1; details: for Antagonist efficacy (RLU value at IC50), AR T877A: in competition with 10 nM DHT
T1 sequence (P10275 1-920 T878A): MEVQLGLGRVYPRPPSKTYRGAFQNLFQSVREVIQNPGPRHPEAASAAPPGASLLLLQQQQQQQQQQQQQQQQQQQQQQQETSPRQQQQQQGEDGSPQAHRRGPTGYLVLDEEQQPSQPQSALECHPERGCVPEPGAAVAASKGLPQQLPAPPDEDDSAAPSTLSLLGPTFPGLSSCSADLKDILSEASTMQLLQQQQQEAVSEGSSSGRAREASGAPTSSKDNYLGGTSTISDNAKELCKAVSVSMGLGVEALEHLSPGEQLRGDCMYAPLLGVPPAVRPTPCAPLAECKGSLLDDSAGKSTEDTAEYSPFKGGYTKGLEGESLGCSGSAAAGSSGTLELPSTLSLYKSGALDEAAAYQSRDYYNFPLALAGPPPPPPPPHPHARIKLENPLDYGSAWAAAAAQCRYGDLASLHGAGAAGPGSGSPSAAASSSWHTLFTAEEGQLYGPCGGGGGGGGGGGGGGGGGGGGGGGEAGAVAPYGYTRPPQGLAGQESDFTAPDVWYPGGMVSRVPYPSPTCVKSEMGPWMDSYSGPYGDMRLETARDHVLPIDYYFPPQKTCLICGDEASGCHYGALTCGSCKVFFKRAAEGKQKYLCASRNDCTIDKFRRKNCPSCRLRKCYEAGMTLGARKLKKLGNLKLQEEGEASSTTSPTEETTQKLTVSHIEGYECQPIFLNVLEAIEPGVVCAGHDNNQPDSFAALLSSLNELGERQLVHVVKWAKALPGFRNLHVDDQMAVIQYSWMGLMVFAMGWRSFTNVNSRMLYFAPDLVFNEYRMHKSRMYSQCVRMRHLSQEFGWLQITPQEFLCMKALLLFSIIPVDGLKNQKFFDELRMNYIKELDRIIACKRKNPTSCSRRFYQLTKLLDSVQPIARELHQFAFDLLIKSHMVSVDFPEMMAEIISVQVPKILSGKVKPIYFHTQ
Protocol: (§1) Twenty-four hours prior to transfection, CV-1 cells were seeded at a density of 45,000 cells per well in 24-well cell culture plates and grown in phenol red free Dulbecco's Modified Eagle Medium (DMEM) supplemented with 10% cosmic calf serum (COS). ARE-luciferase reporter and Renilla-Luc as the internal standard and a prokaryotic expression vector encoding the wild-type androgen receptor or mutant androgen receptor were transfected with Lipofectamine (Invitrogen) following manufacturer's protocol. Five hours after transfection, media was added containing the appropriate concentrations of ligands. The cells were allowed to incubate for 38 hours before harvesting by passive lysis buffer. Cell extracts were immediately assayed using the Dual Luciferase Assay (Promega) with a Perkin-Elmer Microbeta Luminometer. […] Dose-response data was analyzed by nonlinear regression analysis using GraphPad Prism.

AR wt [2] = target: T2, AR wt (Homo sapiens, UniProt P10275); test: Transcription assay (ARE-luciferase reporter) in CV-1 cells, wild-type AR; assay type: cell-based; design: expressed in transfected cells; host or cells: CV-1; details: for Antagonist efficacy (RLU value at IC50), AR wt: in competition with 3 nM DHT, normalized to 10 nM DHT in hAR(wt)
T2 sequence (P10275 1-920): T1 sequence (P10275 1-920 T878A) with A878T
Protocol: as §1

AR T877A [3] = target: T1, AR T877A; test: Competitive binding assay, [3H]DHT, transfected COS-7 cells, AR T877A; design: expressed in transfected cells; host or cells: COS-7; details: 14 nM [3H]-DHT, read-out: Binding affinity (Ki), AR T877A
Protocol: (§2) Twenty-four hours prior to transfection, COS-7 cells were seeded at a density of 70,000 cells per well in 24-well cell culture plates and grown in phenol red free Dulbecco's Modified Eagle Medium (DMEM) supplement with 10% cosmic calf serum (CCS). The cells were transfected with a prokaryotic expression vector encoding the wild-type androgen receptor or mutant androgen receptor using Lipofectamine (Invitrogen) following manufacturer's protocol. […] Cells were washed with PBS and harvested in 2% SDS, 10% glycerol, and 10 mM Tris, pH 6.8, and radioactivity determined by scintillation counting.

AR wt [4] = target: T2, AR wt; test: Competitive binding assay, [3H]DHT, transfected COS-7 cells, wild-type AR; design: expressed in transfected cells; host or cells: COS-7; details: 8 nM [3H]-DHT, read-out: Binding affinity (Ki), AR wt
Protocol: as §2

SMILES | IC50 (AR T877A [1]) | Antagonist efficacy (RLU value at IC50), AR T877A (AR T877A [1]) | IC50 (AR wt [2]) | Antagonist efficacy (RLU value at IC50), AR wt (AR wt [2]) | Ki (AR T877A [3]) | Ki (AR wt [4])
CC(O)(CS(=O)(=O)c1ccccc1-c1ccccc1O)C(=O)Nc1ccc(C#N)c(C(F)(F)F)c1 (stereo not shown) [PAN41, N-(4-cyano-3-(trifluoromethyl)phenyl)-2-hydroxy-3-(2′-hydroxybiphenyl-2-ylsulfonyl)-2-methylpropanamide] | 3.9 ± 1.9 µM | (53% ± 10%) | 1.2 ± 0.5 µM | (45% ± 14%) |  | 
CN(C)CCCOc1cccc(-c2ccccc2S(=O)(=O)CC(C)(O)C(=O)Nc2ccc(C#N)c(C(F)(F)F)c2)c1 (stereo not shown) [PAN52] | 4 ± 2.2 µM | (52% ± 2.5%) | 3.5 ± 2 µM | (49% ± 4.4%) | 4.13 µM | 3 µM
CN(C)CCCOc1cccc(Cc2ccccc2S(=O)(=O)CC(C)(O)C(=O)Nc2ccc(C#N)c(C(F)(F)F)c2)c1 (stereo not shown) [PAN22] | 1.8 ± 0.3 µM | (53% ± 3.8%) | 2 ± 2.2 µM | (50% ± 30%) | 1.75 µM | 2.3 µM
CN(C)CCCOc1ccc(-c2ccccc2S(=O)(=O)CC(C)(O)C(=O)Nc2ccc(C#N)c(C(F)(F)F)c2)cc1 (stereo not shown) [PAN62] | 5 ± 3.2 µM | (56% ± 5.9%) | 2.3 ± 0.9 µM | (51% ± 9.1%) | 4.3 µM | 25 µM
